Assay results: patent US6100074A, “Mutant mono-oxygenase cytochrome P-450 cam” (BG plc, priority 1994, dated 2000)

Experiments:
[1] = system: P-450cam; conditions: wild-type; cited from earlier work
[2] = target: T1, wild type P450cam (Pseudomonas putida, UniProt P00183); test: Kapp (dissociation constant), substrate binding, wild-type; conditions: for Kd: WT, [K+] = 70 mM, phosphate buffer, pH 7.4, average of two measurements
Protocol: (§1) Binding of potential substrates was investigated by spectroscopic methods.
(§2) ^a Values are the average of two independent measurements using the
(§3) method of Sligar (S. G. Sligar, Biochemistry, 1976, 15, 5399-5406). The
(§4) value of Kapp is strongly dependent on the concentration of K^+
(§5) in the buffer. At [K^+ ] > 150 mM. Kapp for camphor is 0.6 μM
(§6) for both wildtype and Y96A. Data in this table were determined at [K^
(§7) ] = 70 mM in phosphate buffer, pH 7.4, in order to avoid salting out of
(§8) substrates at higher ion concentrations.
(§9) ^b Saturation not reached.

[3] = target: T2, P-450cam mutant Y96A (Pseudomonas putida, UniProt P00183, Y97A); test: Hydroxylation of camphor, Y96A; assay type: biochemical; conditions: Y96A compared to wild-type
From the text: This decrease in selectivity can be attributed to the loss of the hydrogen bond between Y96 and camphor.

[4] = target: T2, P-450cam mutant Y96A; test: Kapp (dissociation constant), substrate binding, Y96A; conditions: for dissociation constants (Kapp) / affinity, in words: Y96A compared to wild-type
Protocol: as §1, §2, §3, §4, §5, §6, §7, §8, §9

[5] = target: T2, P-450cam mutant Y96A; assay type: binding
[6] = target: T1, wild type P450cam; assay type: binding; conditions: for conversion of haem to high-spin form / shift in absorption spectrum, in words: wild-type
[7] = target: T3, P450cam mutant Y96A, C334A (Pseudomonas putida, UniProt P00183, C335A/Y97A); assay type: biochemical, P. putida; conditions: also contains C334A
T3 construct: reconstituted with putidaredoxin and putidaredoxin reductase
Protocol: (§10) A solution containing 10 μM putidaredoxin, 2 μM putidaredoxin reductase, 1 μM cytochrome P-450cam mono-oyxgenase (wild-type or mutant) and 1 mM diphenylmethane in 100 mM KC1, 20 mM KH2 PO4 pH7.4 was preincubated at 25° C. in a shaker for 5 min. The enzymatic reaction was initiated by firstly adding NADH to a total concentration of 2 mM. Further four aliquots of NADH (to increase the NADH concentration by 1 mM each time) were added in intervals of 5 min and the reaction quenched after 30 min by adding 0.5 ml chloroform. The chloroform layer was analysed by gas chromatography.
(§11) Reaction products for some substrate compounds have been purified by high performance liquid chromatography and identified by mass spectroscopy, nuclear magnetic resonance, and/or co-elution. […] Table 4(a) to 4(h) details the product distributions for mutant and substrate combinations where this has been elucidated to date.
All mutants listed below also contain the C334A mutation.
Turnover rate measured as NADH consumption rate
(nmole NADH/nmole P450cam/s).

[8] = target: T2, P-450cam mutant Y96A; test: biochemical; assay type: binding; conditions: for percent displacement of bound DTT at 200 µM: Mutant Y96A, 200 μM DTT, 200 μM test compound
[9] = target: T2, P-450cam mutant Y96A; assay type: biochemical; design: key: Those substrates where oxidation has been demonstrated by means of NADH turnover are marked with a + sign
[10] = target: T1, wild type P450cam; test: biochemical; assay type: binding; conditions: Wild type; 200 μM DTT, 200 μM test compound, phosphate buffer; read-out: Vs DTT (percentage displacement of DTT bound to P-450)
[11] = target: T1, wild type P450cam; test: Turnover rate measured as NADH consumption rate, wild type; assay type: biochemical, P. putida; design: reconstituted with putidaredoxin and putidaredoxin reductase
[12] = target: T2, P-450cam mutant Y96A; test: Gas chromatography of incubation products, Y96A; assay type: biochemical; conditions: 1 mM diphenylmethane, 1 μM P-450cam, 25° C., 30 min
Protocol: The mutant protein was reconstituted with putidaredoxin and putidaredoxin reductase. Diphenylmethane (5) was added and the mixture was incubated with NADH and oxygen.
as §10
Organic extracts of the crude incubation mixture were analysed by gas chromatography. […] The other aromatic hydroxylation products, the ortho and meta isomers, had different retention times. Further confirmation of the identity of the product as structure (6) was provided by mass spectrometry, which gave the correct mass peak at 184.

[13] = target: T4, P450cam mutant Y96L, C334A (Pseudomonas putida, UniProt P00183, C335A/Y97L); test: Product distribution following oxidation of substrates, Y96L (also C334A); assay type: biochemical, P. putida
T4 construct: reconstituted with putidaredoxin and putidaredoxin reductase
Protocol: (§12) […] The enzymatic reaction was initiated by firstly adding NADH to a total concentration of 2 mM. Further four aliquots of NADH (to increase the NADH concentration by 1 mM each time) were added in intervals of 5 min and the reaction quenched after 30 min by adding 0.5 ml chloroform. The chloroform layer was analysed by gas chromatography.
as §11
(§13) Product structure and distributions following oxidation of substrates
(§14) active site mutants. All mutants shown below also contain the C334A

[14] = target: T1, wild type P450cam; test: Product distribution following oxidation of substrates, WT; assay type: biochemical, P. putida; design: reconstituted with putidaredoxin and putidaredoxin reductase
Protocol: as §12, §11, §13

[15] = target: T5, P450cam mutant Y96V, C334A (Pseudomonas putida, UniProt P00183, C335A/Y97V); test: Product distribution following oxidation of substrates, Y96V (also C334A); assay type: biochemical, P. putida
T5 construct: reconstituted with putidaredoxin and putidaredoxin reductase
Protocol: as §12, §11, §13, §14

[16] = target: T6, P450cam mutant F87A-F96G-F193A (C334A) (Pseudomonas putida, UniProt P00183, C335A/F194A/F88A/Y97G); assay type: biochemical, P. putida
T6 construct: reconstituted with putidaredoxin and putidaredoxin reductase
Protocol: as §12, §11, §13, §14

[17] = target: T7, P450cam mutant Y96F, C334A (Pseudomonas putida, UniProt P00183, C335A/Y97F); assay type: biochemical, P. putida
T7 construct: reconstituted with putidaredoxin and putidaredoxin reductase
Protocol: as §12, §11, §13, §14

[18] = target: T3, P450cam mutant Y96A, C334A; assay type: biochemical, P. putida
Protocol: as §12, §11, §13, §14

[19] = phosphate buffer, read-out: Vs DTT (percentage displacement of DTT bound to P-450)

CC12CCC(CC1=O)C2(C)C (stereo not drawn) [compound 1, camphor]
hydroxylation to 5-exo-hydroxycamphor, in words [1]: regio- and stereo-selective hydroxylation
Kd [2]: 6.3 µM
hydroxylation selectivity, in words [3]: less selective
Kd [4]: 12 µM
dissociation constants (Kapp) / affinity, in words [4]: increased
conversion of haem to high-spin form, in words [5]: not fully converted to the high-spin form

C1CC2CCC1C2 [compound 4, norbornane]
Kd [2]: 330 µM
Kd [4]: 92 µM
dissociation constants (Kapp) / affinity, in words [4]: reduced
conversion of haem to high-spin form / shift in absorption spectrum, in words [6]: fully converted the haem to the high-spin form

C1C2CC3CC1CC(C2)C3 [compound 3, adamantane]
Kd [2]: 8.4 µM
Kd [4]: 1.4 µM
dissociation constants (Kapp) / affinity, in words [4]: reduced
conversion of haem to high-spin form / shift in absorption spectrum, in words [6]: fully converted the haem to the high-spin form

O=C1C2CC3CC(C2)CC1C3 [compound 2, adamantanone]
Kd [2]: 12 µM
Kd [4]: 28 µM
dissociation constants (Kapp) / affinity, in words [4]: increased
conversion of haem to high-spin form / shift in absorption spectrum, in words [6]: fully converted the haem to the high-spin form
conversion of haem to high-spin form, in words [5]: not fully converted to the high-spin form

CCCCC [n-Pentane]
Turnover rate measured as NADH consumption rate [7]: 5.8 nmole NADH/nmole P450cam/s
percent displacement of bound DTT at 200 µM [8, 19]: 40%
NADH turnover? [9]: +
inhibition at 200 µM [10]: 5%

CCCC(C)CCC [4-methyl heptane]
Turnover rate measured as NADH consumption rate [7]: 10.2 nmole NADH/nmole P450cam/s
Turnover rate measured as NADH consumption rate [11]: 1.4 nmole NADH/nmole P450cam/s

c1ccc(Cc2ccccc2)cc1 [compound 5, diphenylmethane]
Kd [2]: > 1500 µM
binding, in words ([2]; wild-type): bound poorly
Kd [4]: 73 µM
dissociation constants (Kapp) / affinity, in words [4]: greatly enhanced affinity
conversion of haem to high-spin form / shift in absorption spectrum, in words [6]: did not give a shift in the absorption spectrum
new product peak by GC (para-hydroxydiphenylmethane (6)) [12]: Only one major new peak
NADH turnover? [9]: +
conversion of haem to high-spin form, in words [5]: partial conversion
inhibition at 200 µM [10]: 5%

c1ccc2ccccc2c1 [Naphthalene]
Total products [13]: 0.7 area/10^5
Products (%): 1-ol ([13]; naphthalene): 100%
Products (%): 2-ol ([13]; naphthalene): 0%
Total products [14]: 0.016 area/10^5
Products (%): 1-ol ([14]; naphthalene): 100%
Products (%): 2-ol ([14]; naphthalene): 0%
Total products [15]: 1.4 area/10^5
Products (%): 1-ol ([15]; naphthalene): 100%
Products (%): 2-ol ([15]; naphthalene): 0%
percent displacement of bound DTT at 200 µM [8, 19]: 20%
Total products [16]: 0.1 area/10^5
Products (%): 1-ol ([16]; naphthalene): 100%
Products (%): 2-ol ([16]; naphthalene): 0%
Total products [17]: 2.4 area/10^5
Products (%): 1-ol ([17]; naphthalene): 100%
Products (%): 2-ol ([17]; naphthalene): 0%
Total products [18]: 1.1 area/10^5
Products (%): 1-ol ([18]; naphthalene): 100%
Products (%): 2-ol ([18]; naphthalene): 0%

CCCCCCC [n-Heptane]
Turnover rate measured as NADH consumption rate [7]: 4.4 nmole NADH/nmole P450cam/s
percent displacement of bound DTT at 200 µM [8, 19]: 40%
Turnover rate measured as NADH consumption rate [11]: 2.7 nmole NADH/nmole P450cam/s
ΔSpin high/low (percentage of P-450 converted from low- to high-spin) ([6]; Wild type, 200 μM test compound, phosphate buffer pH 7.4): 5%
NADH turnover? [9]: +
inhibition at 200 µM [10]: 5%

C1CCCCCC1 [cycloheptane]
Turnover rate measured as NADH consumption rate [7]: 42.5 nmole NADH/nmole P450cam/s
Turnover rate measured as NADH consumption rate [11]: 4.4 nmole NADH/nmole P450cam/s

CCCCCC [Hexane]
Turnover rate measured as NADH consumption rate [7]: 6.0 nmole NADH/nmole P450cam/s
Vs DTT (percentage displacement of DTT bound to P-450) ([8]; phosphate buffer, 200 µM): 40
inhibition at 200 µM ([8]; read-out: Vs DTT (percentage displacement of DTT bound to P-450)): 60%
NADH turnover? [9]: +
Relative activity (WT = 1) [17]: 18.2
Relative activity (WT = 1) [18]: 25.5

CCCCCCCCC [n-Nonane]
percent displacement of bound DTT at 200 µM [8, 19]: 45%
NADH turnover? [9]: +

CCC(C)CC [3-methyl pentane]
Turnover rate measured as NADH consumption rate [7]: 14.2 nmole NADH/nmole P450cam/s
Turnover rate measured as NADH consumption rate [11]: 1.3 nmole NADH/nmole P450cam/s

CC(C)CC(C)(C)C [2,2,4-trimethyl pentane]
Turnover rate measured as NADH consumption rate [7]: 5.3 nmole NADH/nmole P450cam/s
Turnover rate measured as NADH consumption rate [11]: 0.9 nmole NADH/nmole P450cam/s

CCCC(C)C [2-methyl pentane]
Turnover rate measured as NADH consumption rate [7]: 11.7 nmole NADH/nmole P450cam/s
Turnover rate measured as NADH consumption rate [11]: 3.8 nmole NADH/nmole P450cam/s

CCCCCCCC [n-Octane]
Turnover rate measured as NADH consumption rate [7]: 5.8 nmole NADH/nmole P450cam/s
percent displacement of bound DTT at 200 µM [8, 19]: 45%
NADH turnover? [9]: +
inhibition at 200 µM [10]: 5%

C1CCCCC1 [Cyclohexane]
percent displacement of bound DTT at 200 µM [8, 19]: 60%
NADH turnover? [9]: +

CC(C)CC(C)C [2,4-dimethyl pentane]
Turnover rate measured as NADH consumption rate [7]: 12.6 nmole NADH/nmole P450cam/s
Turnover rate measured as NADH consumption rate [11]: 0.2 nmole NADH/nmole P450cam/s

CCCC(C)(C)C [2,2-dimethyl pentane]
Turnover rate measured as NADH consumption rate [7]: 12.8 nmole NADH/nmole P450cam/s
Turnover rate measured as NADH consumption rate [11]: 5.2 nmole NADH/nmole P450cam/s

c1ccc2c(c1)ccc1ccccc12 [Phenanthrene]
Total products [13]: 2.8 area/10^6
Products (%): A ([13]; phenanthrene): 35.5%
Products (%): B ([13]; phenanthrene): 41%
Products (%): C ([13]; phenanthrene): 9%
Products (%): D ([13]; phenanthrene): 14.5%
Total products [14]: 0.075 area/10^6
Products (%): A ([14]; phenanthrene): 38%
Products (%): B ([14]; phenanthrene): 15%
Products (%): C ([14]; phenanthrene): 12%
Products (%): D ([14]; phenanthrene): 35%
Total products [15]: 1.6 area/10^6
Products (%): A ([15]; phenanthrene): 41%
Products (%): B ([15]; phenanthrene): 38%
Products (%): C ([15]; phenanthrene): 11%
Products (%): D ([15]; phenanthrene): 10%
percent displacement of bound DTT at 200 µM [8, 19]: 20%
NADH turnover? [9]: +
Total products [16]: 0.065 area/10^6
Products (%): A ([16]; phenanthrene): 27%
Products (%): B ([16]; phenanthrene): 41%
Products (%): C ([16]; phenanthrene): 3%
Products (%): D ([16]; phenanthrene): 29%
Total products [17]: 4.5 area/10^6
Products (%): A ([17]; phenanthrene): 41%
Products (%): B ([17]; phenanthrene): 31%
Products (%): C ([17]; phenanthrene): 5%
Products (%): D ([17]; phenanthrene): 23%
Total products [18]: 7.0 area/10^6
Products (%): A ([18]; phenanthrene): 49%
Products (%): B ([18]; phenanthrene): 23%
Products (%): C ([18]; phenanthrene): 13%
Products (%): D ([18]; phenanthrene): 15%
